According to patent US9815796B2 (Merck Sharp & Dohme Corp., priority 2013, dated 2017):

Target: human PDE2A1 (Homo sapiens (Human), UniProt O00408)
Test: IMAP FP PDE selectivity panel, human PDE2A1
Assay type: biochemical
Conditions: Human PDE2, Lab B; read-out: Human PDE2 Ki (nM) - Lab B
Procedure, shortened: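 GST-tagged human PDE2A1 expressed in insect cells, run at room temperature for 60 min with 50 nM FAM-cAMP containing 1000 nM cGMP, pH 7.2 Tris/MgCl2 buffer. IMAP fluorescence polarization read after binding step.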

human PDE2A1, sequence (O00408 other isoform, or with tags, fused parts or gaps): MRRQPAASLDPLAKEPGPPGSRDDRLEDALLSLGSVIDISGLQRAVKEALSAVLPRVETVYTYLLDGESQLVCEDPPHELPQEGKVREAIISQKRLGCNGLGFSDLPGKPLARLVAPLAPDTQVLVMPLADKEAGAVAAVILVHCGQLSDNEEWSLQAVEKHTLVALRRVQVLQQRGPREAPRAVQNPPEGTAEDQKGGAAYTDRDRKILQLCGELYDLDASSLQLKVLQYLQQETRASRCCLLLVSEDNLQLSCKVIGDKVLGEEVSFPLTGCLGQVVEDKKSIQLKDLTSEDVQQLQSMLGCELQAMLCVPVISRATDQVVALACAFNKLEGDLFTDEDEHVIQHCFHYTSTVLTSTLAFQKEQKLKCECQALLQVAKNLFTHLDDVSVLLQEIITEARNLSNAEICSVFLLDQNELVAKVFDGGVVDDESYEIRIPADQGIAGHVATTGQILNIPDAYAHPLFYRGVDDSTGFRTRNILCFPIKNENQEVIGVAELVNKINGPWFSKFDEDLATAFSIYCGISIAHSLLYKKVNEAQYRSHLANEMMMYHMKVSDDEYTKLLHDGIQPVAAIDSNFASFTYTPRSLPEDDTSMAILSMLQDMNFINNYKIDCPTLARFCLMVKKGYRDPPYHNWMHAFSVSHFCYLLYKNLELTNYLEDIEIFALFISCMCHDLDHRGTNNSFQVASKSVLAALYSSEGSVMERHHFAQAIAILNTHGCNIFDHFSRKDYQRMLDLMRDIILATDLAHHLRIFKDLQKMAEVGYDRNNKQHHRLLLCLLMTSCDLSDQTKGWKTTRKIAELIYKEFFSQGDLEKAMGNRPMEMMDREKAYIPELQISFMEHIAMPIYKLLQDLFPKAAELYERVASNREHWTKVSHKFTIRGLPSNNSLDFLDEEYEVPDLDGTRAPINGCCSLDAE

SMILES | Ki
Cc1nc(C(=O)N[C@@H](c2ccc(OC(F)F)c(F)c2)C(C)(C)C)cc(=O)[nH]1 [Example 630, N-{(1R)-1-[4-(difluoromethoxy)-3-fluorophenyl]-2,2-dimethylpropyl}-2-methyl-6-oxo-1,6-dihydropyrimidine-4-carboxamide] | 5.1 nM
Cc1nc(C(=O)N[C@H](C)c2ccc(C(F)F)cc2)cc(=O)[nH]1 [Example 656, N-{(1R)-1-[4-(difluoromethyl)phenyl]ethyl}-2-methyl-6-oxo-1,6-dihydropyrimidine-4-carboxamide] | 111 nM
CC[C@@H](NC(=O)c1cc(=O)[nH]c(C)n1)c1ccc(C(F)F)c(F)c1 [Example 653] | 148 nM
CC(NC(=O)c1cc(=O)[nH]c(C2CC2)n1)c1ccc(C2(C(F)(F)F)CC2)cc1 (single isomer, unassigned) [Example 688, (S)- or (R)-2-cyclopropyl-6-oxo-N-(1-(4-(1-(trifluoromethyl)cyclopropyl)phenyl)-ethyl)-1,6-dihydropyrimidine-4-carboxamide] | > 2960 nM
CC(C)(C)C(NC(=O)c1cc(=O)[nH]c(-c2ncco2)n1)c1ccc(C(F)(F)F)cc1 (single isomer, unassigned) [Example 683, (S)- or (R)-N-(2,2-dimethyl-1-(4-(trifluoromethyl)phenyl)propyl)-2-(oxazol-2-yl)-6-oxo-1,6-dihydropyrimidine-4-carboxamide] | > 2960 nM
C[C@@H](NC(=O)c1cc(=O)[nH]c(-c2ncccn2)n1)c1ccc2c(c1)OC(F)(F)O2 [Example 587, N-[(1R)-1-(2,2-difluoro-1,3-benzodioxol-5-yl)ethyl]-6-oxo-1,6-dihydro-2,2′-bipyrimidine-4-carboxamide] | 71 nM
CC(C)(NC(=O)c1cc(=O)[nH]c(-c2ncccn2)n1)c1ccc(OC(F)(F)F)cc1F [Example 574, N-{1-[2-fluoro-4-(trifluoromethoxy)phenyl]-1-methylethyl}-6-oxo-1,6-dihydro-2,2′-bipyrimidine-4-carboxamide] | 831 nM
Cc1nc(C(=O)NC(c2ccc(S(F)(F)(F)(F)F)cc2F)C(C)(C)C)cc(=O)[nH]1 (single isomer, unassigned) [Example 721, (S)- or (R)-N-(1-(2-fluoro-4-(pentafluoro-λ^6-sulfanyl)phenyl)-2,2-dimethylpropyl)-2-methyl-6-oxo-1,6-dihydropyrimidine-4-carboxamide] | ~1220 nM
O=C(NC1(c2ccc(C(F)(F)F)cc2F)CC1)c1cc(=O)[nH]c(-c2ncccn2)n1 [Example 579, N-{1-[2-fluoro-4-(trifluoromethyl)phenyl]cyclopropyl}-6-oxo-1,6-dihydro-2,2′-bipyrimidine-4-carboxamide] | 37 nM
CC(C)(C)c1ccc(C2(NC(=O)c3cc(=O)[nH]c(-c4ncccn4)n3)CC2)cc1 [Example 575, N-[1-(4-tert-butylphenyl)cyclopropyl]-6-oxo-1,6-dihydro-2,2′-bipyrimidine-4-carboxamide] | 65 nM
CCc1nc(C(=O)N[C@@H](c2ccc(C(F)(F)F)c(F)c2)C2CC2)cc(=O)[nH]1 [Example 603, N-{(R)-cyclopropyl[3-fluoro-4-(trifluoromethyl)phenyl]methyl}-2-ethyl-6-oxo-1,6-dihydropyrimidine-4-carboxamide] | 7.2 nM
O=C(N[C@@H](c1ccc(OC(F)F)cc1)C1CC1)c1cc(=O)[nH]c(-c2ncccn2)n1 [Example 559, N-{(R)-cyclopropyl[4-(difluoromethoxy)phenyl]methyl}-6-oxo-1,6-dihydro-2,2′-bipyrimidine-4-carboxamide] | 128 nM
CC(C)(C)[C@@H](NC(=O)c1cc(=O)[nH]c(-c2ccccc2)n1)c1ccc(CC(F)(F)F)cc1 [Example 537, N-{(1R)-2,2-dimethyl-1-[4-(2,2,2-trifluoroethyl)phenyl]propyl}-6-oxo-2-phenyl-1,6-dihydropyrimidine-4-carboxamide] | 2.4 nM
CC(C)(C)[C@@H](NC(=O)c1cc(=O)[nH]c(-c2ccccc2)n1)c1ccc(SC(F)(F)F)cc1 [Example 541, N-[(1R)-2,2-dimethyl-1-{4-[(trifluoromethyl)sulfanyl]phenyl}propyl]-6-oxo-2-phenyl-1,6-dihydropyrimidine-4-carboxamide] | 1.3 nM
Cc1nc(C(=O)N[C@@H](c2ccc(OC(F)F)c(F)c2)C2CC2)cc(=O)[nH]1 [Example 629, N-{(R)-cyclopropyl[4-(difluoromethoxy)-3-fluorophenyl]methyl]-2-methyl-6-oxo-1,6-dihydropyrimidine-4-carboxamide] | 53 nM
CC(NC(=O)c1cc(=O)[nH]c(C2CC2)n1)c1ccc(C(C)(C)C(F)(F)F)cc1 (single isomer, unassigned) [Example 697] | 115 nM
O=C(N[C@@H](c1ccc2c(c1)OC(F)(F)O2)C1CC1)c1cc(=O)[nH]c(-c2ncccn2)n1 [Example 591, N-[(R)-cyclopropyl(2,2-difluoro-1,3-benzodioxol-5-yl)methyl]-6-oxo-1,6-dihydro-2,2′-bipyrimidine-4-carboxamide] | 30 nM

SMILES | Ki
CC(C)c1ccc(C2(NC(=O)c3cc(=O)[nH]c(-c4ncccn4)n3)CC2)cc1 [Example 576, N-{1-[4-(1-methylethyl)phenyl]cyclopropyl}-6-oxo-1,6-dihydro-2,2′-bipyrimidine-4-carboxamide] | 32 nM
Cc1nc(C(=O)N[C@]2(c3ccc(C(F)(F)F)cc3)C[C@@H]2C)cc(=O)[nH]1 (single isomer, unassigned) [Example 670, 2-methyl-N-{2-methyl-1-[4-(trifluoromethyl)phenyl]cyclopropyl}-6-oxo-1,6-dihydropyrimidine-4-carboxamide] | 28 nM
Cc1nc(C(=O)NC2(c3ccc(C(F)F)cc3)CC2)cc(=O)[nH]1 [Example 660, N-{1-[4-(difluoromethyl)phenyl]cyclopropyl}-2-methyl-6-oxo-1,6-dihydropyrimidine-4-carboxamide] | 54 nM
CC(NC(=O)c1cc(=O)[nH]c(-c2ccccc2)n1)c1ccc(C2(C(F)(F)F)CC2)cc1 (single isomer, unassigned) [Example 690, (S)- or (R)-6-oxo-2-phenyl-N-(1-(4-(1-(trifluoromethyl)cyclopropyl)phenyl)-ethyl)-1,6-dihydropyrimidine-4-carboxamide] | > 2960 nM
Cc1nc(C(=O)NC2(c3ccc(C(F)F)c(F)c3)CC2)cc(=O)[nH]1 [Example 655, N-{l-[4-(difluoromethyl)-3-fluorophenyl]cyclopropyl}-2-methyl-6-oxo-1,6-dihydropyrimidine-4-carboxamide] | 64 nM
Cc1nc(C(=O)N[C@]2(c3ccc(C(C)C)cc3)C[C@H]2C)cc(=O)[nH]1 (single isomer, unassigned) [Example 664, 2-methyl-N-{2-methyl-1-[4-(1-methylethyl)phenyl]cyclopropyl}-6-oxo-1,6-dihydropyrimidine-4-carboxamide] | ~1570 nM
CC(C)(C)[C@@H](NC(=O)c1cc(=O)[nH]c(-c2ncccn2)n1)c1ccc(OC(F)(F)F)c(F)c1 [Example 554, N-{(1R)-1-[3-fluoro-4-(trifluoromethoxy)phenyl]-2,2-dimethylpropyl}-6-oxo-1,6-dihydro-2,2′-bipyrimidine-4-carboxamide] | 8.2 nM
CC(C)(C)[C@@H](NC(=O)c1cc(=O)[nH]c(-c2ncccn2)n1)c1ccc(S(F)(F)(F)(F)F)cc1 [Example 566, N-{(1R)-2,2-dimethyl-1-[4-(pentafluoro-λ^6-sulfanyl)phenyl]propyl}-6-oxo-1,6-dihydro-2,2′-bipyrimidine-4-carboxamide] | 4.3 nM
Cc1nc(C(=O)N[C@@H](c2ccc3c(c2)OC(F)(F)O3)C(C)(C)C)cc(=O)[nH]1 [Example 633, N-[(1R)-1-(2,2-difluoro-1,3-benzodioxol-5-yl)-2,2-dimethylpropyl]-2-methyl-6-oxo-1,6-dihydropyrimidine-4-carboxamide] | 16 nM
Cc1nc(C(=O)N[C@@H](c2ccc3c(c2)OC(F)(F)O3)C2(C)CC2)cc(=O)[nH]1 [Example 634, N-[(R)-(2,2-difluoro-1,3-benzodioxol-5-yl)(1-methylcyclopropyl)methyl]-2-methyl-6-oxo-1,6-dihydropyrimide-4-carboxamide] | 29 nM
Cc1nc(C(=O)N[C@@H](c2ccc(C(F)F)c(F)c2)C2(C)CC2)cc(=O)[nH]1 [Example 647, N-[(R)-[4-(difluoromethyl)-3-fluorophenyl](1-methylcyclopropyl)methyl]-2-methyl-6-oxo-1,6-dihydropyrimidine-4-carboxamide] | 52 nM
Cc1nc(C(=O)NC(C)(C)c2ccc3c(c2)OC(F)(F)O3)cc(=O)[nH]1 [Example 604, N-[1-(2,2-difluoro-1,3-benzodioxol-5-yl)-1-methylethyl]-2-methyl-6-oxo-1,6-dihydropyrimidine-4-carboxamide] | 108 nM
CC(C)(C)[C@@H](NC(=O)c1cc(=O)[nH]c(-c2ncccn2)n1)c1ccc(SC(F)(F)F)cc1 [Example 555, N-[(1R)-2,2-dimethyl-1-{4-[(trifluoromethyl)sulfanyl]phenyl}propyl]-6-oxo-1,6-dihydro-2,2′-bipyrimidine-4-carboxamide] | 4.5 nM
CC(C)c1ccc([C@H](NC(=O)c2cc(=O)[nH]c(-c3ncccn3)n2)C2(C)CC2)cc1 [Example 562, N-{(R)-(1-methylcyclopropyl)[4-(1-methylethyl)phenyl]methyl}-6-oxo-1,6-dihydro-2,2′-bipyrimidine-4-carboxamide] | 4.3 nM
Cc1nc(C(=O)N[C@@H](c2ccc(C(F)F)cc2F)C(C)(C)C)cc(=O)[nH]1 [Example 661, N-{(1R)-1-[4-(difluoromethyl)-2-fluorophenyl]-2,2-dimethylpropyl}-2-methyl-6-oxo-1,6-dihydropyrimidine-4-carboxamide] | 6.6 nM
Cc1nc(C(=O)N[C@H](C)c2ccc(S(F)(F)(F)(F)F)cc2F)cc(=O)[nH]1 [Example 673, N-(1-(2-fluoro-4-(pentafluorothio)phenyl)ethyl)-2-methyl-6-oxo-1,6-dihydropyrimidine-4-carboxamide] | 32 nM
